In US6475768B1 (Forskarpatent I Syd AB, priority 2000, dated 2002) one finds Ki and Ki for xylitol data, which are given here for 1 molecule.

Positions count from the first letter of the chain named.

The term Ki denotes a measure of affinity in units of concentration, obtained from inhibition or displacement.

For test [1], the target named is Thermus thermophilus xylose isomerase (xylA), mutant 1010 (M1010) (Thermus thermophilus, UniProt P26997). The test is classed as biochemical. Conditions: read-out: Ki xylitol; mutant 1010, xylose 20-400 mM, fixed xylitol concentrations. The method, then: (§1) The cells were harvested by centrifugation in the stationary phase of growth and washed once with ice cold distilled water. Washed cells were resusprended in 100 mM triethanolamine, pH 7.0, 0.5 mg/ml lysozyme (130000 U/mg), 0.25 mg/ml DNase, and 1 mM phenylmethylsulphonyl fluoride (PMSF) in dimethylsulfoxide (DMSO). The suspensions were kept at room temperature for one hour and then on ice for two hours before being put in a freezer at −20° C. The cell lysates were thawed on ice, cell debris was removed by centrifugation (1300 rpm for 15 minutes at 4° C.) and the supernatants were used as the crude enzyme preparations.
(§2) Protein concentration was determined with the Bradford method (Bradford (1976)) using the Pierce protein reagent with bovine serum albumin as standard.
(§3) The reaction was terminated after 10 minutes by adding 150 μl 50% trichloroaceticacid. The reaction mixture was neutralized with 185 μl 2 M Na2CO3. The formed xylulose or fructose was measured on a COBAS MIRA (Roche) automated spectrophotometer via enzymatic reduction with 0.04 or 0.5 units of Sorbitol Dehydrogenase (purchased from Roche), respectively in the presence of 0.15 mM NADH at pH 7.0, 37° C. in 200 μl reaction volume. The rate of disappearance of NADH was followed at 340 nm and the concentration of D-xylulose or D-fructose was calculated using calibration curves. […] The specific activity (U min^−1 mg^−1) was determined from the activity and the protein concentration of the crude enzyme preparations.
The kinetic parameters Vmax (μmol min^−1 mg^−1) and Km (mM) were determined from Michaelis-Menten plots of specific activities at various substrate concentrations by nonlinear regression analysis with Sigma Plot (SSPS Inc.) software. Typically, duplicate measurements were used to determine the Km value at 6-10 concentrations of the substrate, with a concentration range covering the value of Km.

For test [2], the target named is T1, Thermus thermophilus xylose isomerase (xylA), mutant 1021 (M1021) (Thermus thermophilus, UniProt P26997, E372G/V379A).
T1 construct: made in house; host or cells: E. coli HB101 (crude lysate)
T1 sequence (P26997 1-387 E372G/V379A): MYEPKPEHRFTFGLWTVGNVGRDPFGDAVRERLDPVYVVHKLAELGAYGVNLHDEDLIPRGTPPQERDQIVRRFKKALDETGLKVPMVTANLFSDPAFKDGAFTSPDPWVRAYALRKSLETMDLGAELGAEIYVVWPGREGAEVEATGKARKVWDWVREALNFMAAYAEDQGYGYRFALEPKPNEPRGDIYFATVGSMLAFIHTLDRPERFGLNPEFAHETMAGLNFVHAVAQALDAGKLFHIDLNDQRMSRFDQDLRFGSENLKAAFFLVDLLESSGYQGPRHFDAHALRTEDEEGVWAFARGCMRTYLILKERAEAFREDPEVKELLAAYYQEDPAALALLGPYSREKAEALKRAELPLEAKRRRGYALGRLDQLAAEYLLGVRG
Briefly: Kinetic characterisation of mutant xylose isomerase 1021 (xylose/glucose isomerase activity, xylitol inhibition). The test is classed as biochemical. The method, then:
as §1, §2
The reaction was terminated after 10 minutes by adding 150 μl 50% trichloroaceticacid. The reaction mixture was neutralized with 185 μl 2 M Na2CO3. The formed xylulose or fructose was measured on a COBAS MIRA (Roche) automated spectrophotometer via enzymatic reduction with 0.04 or 0.5 units of Sorbitol Dehydrogenase (purchased from Roche), respectively in the presence of 0.15 mM NADH at pH 7.0, 37° C. in 200 μl reaction volume. The rate of disappearance of NADH was followed at 340 nm and the concentration of D-xylulose or D-fructose was calculated using calibration curves. […]

For test [3], the target named is Thermus thermophilus xylose isomerase mutants (1010, 1021, 1024, 1026). In words: Inhibition constant for xylitol, mutants compared to wildtype. The test is classed as biochemical. The following applies: the mutants compared to the wildtype enzyme, xylose 20-400 mM. The method, then:
as §1
as §3, with “preparations. […]” for “preparations.”

Test [4] has as its target T2, Thermus thermophilus xylose isomerase, wild type (nucleic acid sequence SEQ ID NO: 2) (Thermus thermophilus, UniProt P26997).
T2 sequence (P26997 1-387): T1 sequence (P26997 1-387 E372G/V379A) with G372E, A379V
Briefly: biochemical.

Thermus thermophilus xylose isomerase (xylA), mutant 1010 (M1010), sequence (P26997 whole entry, change not shown): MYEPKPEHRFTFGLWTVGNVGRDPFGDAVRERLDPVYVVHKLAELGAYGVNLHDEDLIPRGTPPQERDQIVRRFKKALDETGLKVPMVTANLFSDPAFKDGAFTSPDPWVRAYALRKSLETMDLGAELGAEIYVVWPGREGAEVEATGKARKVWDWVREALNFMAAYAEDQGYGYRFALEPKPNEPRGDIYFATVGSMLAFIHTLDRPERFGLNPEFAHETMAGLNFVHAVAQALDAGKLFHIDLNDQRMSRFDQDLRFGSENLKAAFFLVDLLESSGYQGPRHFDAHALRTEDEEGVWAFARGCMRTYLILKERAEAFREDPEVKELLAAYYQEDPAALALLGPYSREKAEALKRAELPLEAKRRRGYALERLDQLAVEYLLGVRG

As for `OC[C@@H](O)[C@H](O)[C@@H](O)CO` [xylitol], the Ki in test [1] worked out at 10.1 mM; in test [2] it was 33.2 mM; in test [4], 4.6 mM. Also, the Ki for xylitol result in test [3] is listed as “higher Ki for xylitol”.
